According to patent publication US20230174507A1, “IMIDAZOLE 3-OXIDE DERIVATIVE BASED ACSS2 INHIBITORS AND METHODS OF USE THEREOF” (METABOMED LTD., priority 2020, published 2023):

Legend:
[1] = target: T1, human ACSS1 protein (Homo sapiens, UniProt Q9NUB1); assay: ACSS1 cell-free activity assay (pyrophosphatase-coupled, Biomol green); type: biochemical; details: 5 nM human ACSS1, 30 minutes at room temperature, absorbance at 620 nm
T1 construct: purchased MyBioSource
T1 sequence (Q9NUB1 38-689): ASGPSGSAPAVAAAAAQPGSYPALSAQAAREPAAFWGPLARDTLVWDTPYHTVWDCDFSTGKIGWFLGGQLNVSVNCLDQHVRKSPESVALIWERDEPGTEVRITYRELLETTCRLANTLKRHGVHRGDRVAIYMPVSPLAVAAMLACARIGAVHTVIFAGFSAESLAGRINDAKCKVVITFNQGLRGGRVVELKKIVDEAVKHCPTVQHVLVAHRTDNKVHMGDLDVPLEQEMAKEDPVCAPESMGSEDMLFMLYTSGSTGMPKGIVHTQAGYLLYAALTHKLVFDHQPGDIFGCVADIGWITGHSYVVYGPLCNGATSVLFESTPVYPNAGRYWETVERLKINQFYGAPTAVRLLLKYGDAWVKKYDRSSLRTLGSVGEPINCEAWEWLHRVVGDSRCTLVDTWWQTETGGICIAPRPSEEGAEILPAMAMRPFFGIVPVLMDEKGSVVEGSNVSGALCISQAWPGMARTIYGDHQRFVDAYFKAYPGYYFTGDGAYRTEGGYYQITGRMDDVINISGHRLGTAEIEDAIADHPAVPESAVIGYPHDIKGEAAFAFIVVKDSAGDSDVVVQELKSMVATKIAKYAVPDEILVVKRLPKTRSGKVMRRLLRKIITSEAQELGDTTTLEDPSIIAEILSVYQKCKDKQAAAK
Procedure: ACSS1 Cell-Free Activity Assay (Cell-Free IC50)
(§1) The assay is based on a coupling reaction with Pyrophosphatase: ACSS1 is converting ATP+CoA+Acetate=>AMP+pyrophosphate+Acetyl-CoA (Ac-CoA). Pyrophosphatase converts pyrophosphate, a product of the ACSS1 reaction, to phosphate which can be detected by measuring the absorbance at 620 nm after incubation with the Biomol green reagent (Enzo life Science, BML-AK111).
(§2) Cell Free IC50 Determination:
5 nM of human ACSS1 protein (MyBioSource) was incubated for 30 minutes at room temperature with various compounds' concentrations in a reaction containing 50 mM Hepes pH 7.5, 10 mM DTT, 90 mM KCl, 0.006% Tween-20, 0.1 mg/ml BSA, 2 mM MgCl2, 15 μM CoA, 5 mM NaAc, 300 μM ATP and 0.5 U/ml Pyrophosphatase (Sigma). At the end of the reaction, Biomol Green was added for 30 minutes at RT and the activity was measured by reading the absorbance at 620 nm. IC50 values were calculated using non-linear regression curve fit with 0% and 100% constrains (CDD Vault, Collaborative Drug Discovery, Inc.).

[2] = target: T2, human ACSS2 protein (Homo sapiens, UniProt Q9NR19); assay: ACSS2 cell-free activity assay (pyrophosphatase-coupled, Biomol green); details: 10 nM human ACSS2, 90 minutes at 37 C, absorbance at 620 nm; read-out: ACSS2 Biochemical IC50
T2 construct: purchased OriGene Technologies, Inc
Procedure: ACSS2 Cell-Free Activity Assay (Cell-Free IC50)
as §1, with “ACSS2” for “ACSS1”
as §2
10 nM of human ACSS2 protein (OriGene Technologies, Inc) was incubated for 90 minutes at 37 C with various compounds' concentrations in a reaction containing 50 mM Hepes pH 7.5, 10 mM DTT, 90 mM KCl, 0.006% Tween-20, 0.1 mg/ml BSA, 2 mM MgCl2, 10 μM CoA, 5 mM NaAc, 300 μM ATP and 0.5 U/ml Pyrophosphatase (Sigma). At the end of the reaction, Biomol Green was added for 30 minutes at RT and the activity was measured by reading the absorbance at 620 nm. IC50 values were calculated using non-linear regression curve fit with 0% and 100% constrains (CDD Vault, Collaborative Drug Discovery, Inc.).

T2 sequence (Q9NR19 whole entry): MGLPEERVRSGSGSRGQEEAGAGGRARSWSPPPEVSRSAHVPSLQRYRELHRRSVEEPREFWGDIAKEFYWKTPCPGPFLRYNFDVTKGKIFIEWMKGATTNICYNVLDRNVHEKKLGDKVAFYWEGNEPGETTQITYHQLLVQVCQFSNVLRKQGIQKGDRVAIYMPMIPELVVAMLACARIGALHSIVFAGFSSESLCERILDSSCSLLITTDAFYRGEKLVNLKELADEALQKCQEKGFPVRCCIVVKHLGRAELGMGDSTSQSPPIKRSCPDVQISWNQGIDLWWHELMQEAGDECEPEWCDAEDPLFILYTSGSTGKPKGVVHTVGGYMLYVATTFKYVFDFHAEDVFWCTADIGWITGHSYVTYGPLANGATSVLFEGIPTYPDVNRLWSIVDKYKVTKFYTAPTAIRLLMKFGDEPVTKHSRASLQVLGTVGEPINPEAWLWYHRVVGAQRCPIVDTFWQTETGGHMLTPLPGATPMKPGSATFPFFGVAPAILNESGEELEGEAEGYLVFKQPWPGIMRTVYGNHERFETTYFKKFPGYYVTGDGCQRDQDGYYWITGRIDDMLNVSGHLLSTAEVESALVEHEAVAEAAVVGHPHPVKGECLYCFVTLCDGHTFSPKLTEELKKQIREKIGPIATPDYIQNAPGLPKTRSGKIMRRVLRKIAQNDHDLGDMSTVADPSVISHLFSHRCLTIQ

Row | ACSS1 Biochemical IC50 (nM) [1] | IC50 [2] [nM] | Structure (SMILES)
1 | Inactive | 1 to 30 | CCC(F)(F)c1cccc(NC(=O)c2c(C)[nH]c(-c3ccc(OC)c(-c4c(C(F)(F)F)cccc4C(F)(F)F)c3)[n+]2[O-])c1 [Compound 128, 4-((3-(1,1-difluoropropyl)phenyl)carbamoyl)-2-(6-methoxy-2′,6′-bis(trifluoromethyl)-[1,1′-biphenyl]-3-yl)-5-methyl-1H-imidazole 3-oxide]
2 | Inactive | < 1 | CCCCc1cc(-c2c(C)cccc2C)cc(-c2[nH]c(C)c(C(=O)Nc3cccc(C(F)(F)C4CC4)c3)[n+]2[O-])c1 [Compound 161, 2-(5-butyl-2′,6′-dimethyl-[1,1′-biphenyl]-3-yl)-4-((3-(cyclopropyldifluoromethyl)phenyl)carbamoyl)-5-methyl-1H-imidazole 3-oxide]
3 | Inactive | > 30 | CCC(F)(F)c1cccc(NC(=O)c2c(C)[nH]c(-c3ccc(OC)c(-c4cccnn4)c3C)[n+]2[O-])c1 [Compound 122, 4-((3-(1,1-difluoropropyl)phenyl)carbamoyl)-2-(4-methoxy-2-methyl-3-(pyridazin-3-yl)phenyl)-5-methyl-1H-imidazole 3-oxide]
4 | – | 1 to 30 | CCC(F)(F)c1cccc(NC(=O)c2c(C)[nH]c(-c3cc(C)cc(-c4c(C)cccc4C)c3)[n+]2[O-])c1 [Compound 130, 4-((3-(1,1-difluoropropyl)phenyl)carbamoyl)-5-methyl-2-(2′,5,6′-trimethyl-[1,1′-biphenyl]-3-yl)-1H-imidazole 3-oxide]

More lines, now with the values behind:

Row | Structure (SMILES) | ACSS1 Biochemical IC50 (nM) [1] | IC50 [2] [nM]
5 | CCC(F)(F)c1cccc(NC(=O)c2c(C)[nH]c(-c3ccc(OC)c(C4CCNCC4)c3)[n+]2[O-])c1 [Compound 162, 4-((3-(1,1-difluoropropyl)phenyl)carbamoyl)-2-(4-methoxy-3-(piperidin-4-yl)phenyl)-5-methyl-1H-imidazole 3-oxide] | Inactive | < 1
6 | CCC(F)(F)c1cccc(NC(=O)c2c(C)[nH]c(-c3ccc(OC)c(-c4ccncn4)c3C)[n+]2[O-])c1 [Compound 144, 4-((3-(1,1-difluoropropyl)phenyl)carbamoyl)-2-(4-methoxy-2-methyl-3-(pyrimidin-4-yl)phenyl)-5-methyl-1H-imidazole 3-oxide] | Inactive | > 30
7 | CCC(F)(F)c1cccc(NC(=O)c2c(C)[nH]c(-c3ccc(OC)c(N4CCOCC4)c3)[n+]2[O-])c1 [Compound 150, 4-((3-(1,1-difluoropropyl)phenyl)carbamoyl)-2-(4-methoxy-3-morpholinophenyl)-5-methyl-1H-imidazole 3-oxide] | Inactive | 1 to 30
8 | COc1ccc(-c2[nH]c(C)c(C(=O)Nc3ccc4[nH]cnc4c3)[n+]2[O-])cc1-c1c(C)cccc1C [Compound 173, 4-((1H-benzo[d]imidazol-5-yl)carbamoyl)-2-(6-methoxy-2′,6′-dimethyl-[1,1′-biphenyl]-3-yl)-5-methyl-1H-imidazole 3-oxide] | Inactive | > 30
9 | COc1ccc(-c2[nH]c(C)c(C(=O)Nc3cccc(C(=O)N4CCC4)c3)[n+]2[O-])cc1-c1c(C)cccc1C [Compound 170, 4-((3-(azetidine-1-carbonyl)phenyl)carbamoyl)-2-(6-methoxy-2′,6′-dimethyl-[1,1′-biphenyl]-3-yl)-5-methyl-1H-imidazole 3-oxide] | Inactive | < 1
10 | CCC(F)(F)c1cccc(NC(=O)c2c(C)[nH]c(-c3ccc(OC)c(-c4cnccn4)c3C)[n+]2[O-])c1 [Compound 127, 4-((3-(1,1-difluoropropyl)phenyl)carbamoyl)-2-(4-methoxy-2-methyl-3-(pyrazin-2-yl)phenyl)-5-methyl-1H-imidazole 3-oxide] | Inactive | > 30
